Patent US12091409B2, “Ether linked triazoles as NRF2 activators” (ASTEX THERAPEUTICS LIMITED, priority 2016, dated 2024)

System: NQO1 specific enzyme activity in BEAS-2B cells (marker for NRF2 activation)
Assay: BEAS-2B NQO1 MTT Assay
Assay type: cell-based
Conditions: Homo sapiens, BEAS-2B, 48 h, NQO1 specific activity induction, 48 hours with compound
Description: NAD(P)H:quinone oxidoreductase 1 (NQO1), also called DT diaphorase, is a homodimeric FAD-containing enzyme that catalyzes obligatory NAD(P)H-dependent two-electron reductions of quinones and protects cells against the toxic and neoplastic effects of free radicals and reactive oxygen species arising from one-electron reductions. The transcription of NQO1 is finely regulated by NRF2, and thus NQO1 activity is a good marker for NRF2 activation. On day one, frozen BEAS-2B cells (ATCC) were thawed in a water bath, counted, and re-suspended at a concentration of 250,000 cells/mL. Fifty microliters of cells were plated in 384 well black clear-bottomed plates. Plates were incubated at 37° C., 5% CO2 overnight. On day two, plates were centrifuged and 50 nL of compound or controls were added to the cells. Plates were then incubated at 37° C., 5% CO2 for 48 hours. On day four, medium was aspirated from the plate and crude cell lysates were made by adding 13 uL of 1× Cell Signaling Technologies lysis buffer with 1 Complete, Mini, EDTA-free Protease Inhibitor Tablet (Roche) for each 10 mL of lysis buffer. After lysis plates were incubated for 20 minutes at room temperature. Two microliters of lysate were removed for use in Cell Titer Glo assay (Promega) and MTT cocktail was prepared (Prochaska et. al. 1998) for measurement of NQO1 activity. Fifty microliters of MTT cocktail was added to each well, plate was centrifuged, and analyzed on an Envision plate reader (Perkin Elmer) using Absorbance 570 nm label for 30 minutes. Product formation was measured kinetically and the pEC50 of NQO1 specific activity induction was calculated by plotting the change in absorbance (Delta OD/min) versus the log of compound concentration followed by 3-parameter fitting.
pEC50 is the negative log of the EC50.
EC50s<1 nM (+++++), EC50s 1 nM-10 nM (++++), EC50s 10 nM-100 nM (+++), EC50s 100 nM-1 uM (++), EC50s 1 uM-10 uM (+); EC50s>10 uM (−), or were not determined (ND).

Structure (SMILES)	EC50 [µM]
CC(=O)N1CCC(Cn2cc(COC(c3ccc(C)c(CN4C[C@@H](C)Oc5ccccc5S4(=O)=O)c3)C(C)(C)C(=O)O)nn2)CC1 (stereo partly drawn) [Example 32, 3-((1-((1-Acetylpiperidin-4-yl)methyl)-1H-1,2,3-triazol-4-yl)methoxy)-2,2-dimethyl-3-(4-methyl-3-(((R)-4-methyl-1,1-dioxido-3,4-dihydro-2H-benzo[b][1,4,5]oxathiazepin-2-yl)methyl)phenyl)propanoic acid]	0.01 to 0.1
CCC(=O)N1CCC(Cn2cc(COC(c3ccc(C)c(CN4C[C@@H](C)Oc5ccccc5S4(=O)=O)c3)C(C)(C)C(=O)O)nn2)CC1 (stereo partly drawn) [Example 33, 2,2-Dimethyl-3-(4-methyl-3-(((R)-4-methyl-1,1-dioxido-3,4-dihydro-2H-benzo[b][1,4,5]oxathiazepin-2-yl)methyl)phenyl)-3-((1-((1-propionylpiperidin-4-yl)methyl)-1H-1,2,3-triazol-4-yl)methoxy)propanoic acid]	0.01 to 0.1
CCCC(=O)N1CCC(Cn2cc(COC(c3ccc(C)c(CN4C[C@@H](C)Oc5ccccc5S4(=O)=O)c3)C(C)(C)C(=O)O)nn2)CC1 (stereo partly drawn) [Example 34, 3-((1-((1-Butyrylpiperidin-4-yl)methyl)-1H-1,2,3-triazol-4-yl)methoxy)-2,2-dimethyl-3-(4-methyl-3-(((R)-4-methyl-1,1-dioxido-3,4-dihydro-2H-benzo[b][1,4,5]oxathiazepin-2-yl)methyl)phenyl)propanoic acid]	0.01 to 0.1
Cc1ccc(C(OCc2cn(CC3CCN(C(=O)C4CCOCC4)CC3)nn2)C(C)(C)C(=O)O)cc1CN1C[C@@H](C)Oc2ccccc2S1(=O)=O (stereo partly drawn) [Example 35, 2,2-Dimethyl-3-(4-methyl-3-(((R)-4-methyl-1,1-dioxido-3,4-dihydro-2H-benzo[b][1,4,5]oxathiazepin-2-yl)methyl)phenyl)-3-((1-((1-(tetrahydro-2H-pyran-4-carbonyl)piperidin-4-yl)methyl)-1H-1,2,3-triazol-4-yl)methoxy)propanoic acid]	0.1 to 1
Cc1ccc(C(OCc2cn(CC3CCN(S(C)(=O)=O)CC3)nn2)C(C)(C)C(=O)O)cc1CN1C[C@@H](C)Oc2ccccc2S1(=O)=O (stereo partly drawn) [Example 36, 2,2-Dimethyl-3-(4-methyl-3-(((R)-4-methyl-1,1-dioxido-3,4-dihydro-2H-benzo[b][1,4,5]oxathiazepin-2-yl)methyl)phenyl)-3-((1-((1-(methylsulfonyl)piperidin-4-yl)methyl)-1H-1,2,3-triazol-4-yl)methoxy)propanoic acid]	0.01 to 0.1
Cc1ccc(C(OCc2cn(Cc3cccc(Cn4cc(C(C)C)nn4)c3)nn2)C(C)(C)C(=O)O)cc1CN1C[C@@H](C)Oc2ccccc2S1(=O)=O (stereo partly drawn) [Example 37, 3-((1-(3-((4-Isopropyl-1H-1,2,3-triazol-1-yl)methyl)benzyl)-1H-1,2,3-triazol-4-yl)methoxy)-2,2-dimethyl-3-(4-methyl-3-(((R)-4-methyl-1,1-dioxido-3,4-dihydro-2H-benzo[b][1,4,5]oxathiazepin-2-yl)methyl)phenyl)propanoic acid]	0.001 to 0.01
CCc1cn(Cc2cccc(Cn3cc(COC(c4ccc(C)c(CN5C[C@@H](C)Oc6ccccc6S5(=O)=O)c4)C(C)(C)C(=O)O)nn3)c2)nn1 (some centres unmarked) [Example 38]	0.01 to 0.1
Cc1ccc(C(OCc2cn(Cc3cccc(Cn4cc(CO)nn4)c3)nn2)C(C)(C)C(=O)O)cc1CN1C[C@@H](C)Oc2ccccc2S1(=O)=O (stereo partly drawn) [Example 39, 3-((1-(3-((4-(Hydroxymethyl)-1H-1,2,3-triazol-1-yl)methyl)benzyl)-1H-1,2,3-triazol-4-yl)methoxy)-2,2-dimethyl-3-(4-methyl-3-(((R)-4-methyl-1,1-dioxido-3,4-dihydro-2H-benzo[b][1,4,5]oxathiazepin-2-yl)methyl)phenyl)propanoic acid]	0.01 to 0.1
Cc1ccc(C(OCc2cn(Cc3cccc(Cn4cc(CCO)nn4)c3)nn2)C(C)(C)C(=O)O)cc1CN1C[C@@H](C)Oc2ccccc2S1(=O)=O (stereo partly drawn) [Example 40, 3-((1-(3-((4-(2-Hydroxyethyl)-1H-1,2,3-triazol-1-yl)methyl)benzyl)-1H-1,2,3-triazol-4-yl)methoxy)-2,2-dimethyl-3-(4-methyl-3-(((R)-4-methyl-1,1-dioxido-3,4-dihydro-2H-benzo[b][1,4,5]oxathiazepin-2-yl)methyl)phenyl)propanoic acid]	0.1 to 1
Cc1ccc(C(OCc2cn(Cc3cccc(Cn4cc(C(C)(C)O)nn4)c3)nn2)C(C)(C)C(=O)O)cc1CN1C[C@@H](C)Oc2ccccc2S1(=O)=O (stereo partly drawn) [Example 41, 3-((1-(3-((4-(2-Hydroxypropan-2-yl)-1H-1,2,3-triazol-1-yl)methyl)benzyl)-1H-1,2,3-triazol-4-yl)methoxy)-2,2-dimethyl-3-(4-methyl-3-(((R)-4-methyl-1,1-dioxido-3,4-dihydro-2H-benzo[b][1,4,5]oxathiazepin-2-yl)methyl)phenyl)propanoic acid]	0.01 to 0.1
Cc1ccc(C(OCc2cn(Cc3cccc(Cn4cc(CCCCO)nn4)c3)nn2)C(C)(C)C(=O)O)cc1CN1C[C@@H](C)Oc2ccccc2S1(=O)=O (stereo partly drawn) [Example 42, 3-((1-(3-((4-(4-Hydroxybutyl)-1H-1,2,3-triazol-1-yl)methyl)benzyl)-1H-1,2,3-triazol-4-yl)methoxy)-2,2-dimethyl-3-(4-methyl-3-(((R)-4-methyl-1,1-dioxido-3,4-dihydro-2H-benzo[b][1,4,5]oxathiazepin-2-yl)methyl)phenyl)propanoic acid]	0.01 to 0.1
Cc1ccc(C(OCc2cn(Cc3cccc(Cn4cc(C(=O)O)nn4)c3)nn2)C(C)(C)C(=O)O)cc1CN1C[C@@H](C)Oc2ccccc2S1(=O)=O (stereo partly drawn) [Example 43, 1-(3-((4-((2-Carboxy-2-methyl-1-(4-methyl-3-(((R)-4-methyl-1,1-dioxido-3,4-dihydro-2H-[b][1,4,5]oxathiazepin-2-yl)methyl)phenyl)propoxy)methyl)-1H-1,2,3-triazol-1-yl)methyl)benzyl)-1H-1,2,3-triazole-4-carboxylic acid]	0.1 to 1
Cc1ccc(C(OCc2cn(Cc3cccc(Cn4cc(CC(=O)O)nn4)c3)nn2)C(C)(C)C(=O)O)cc1CN1C[C@@H](C)Oc2ccccc2S1(=O)=O (stereo partly drawn) [Example 44, 3-((1-(3-((4-(Carboxymethyl)-1H-1,2,3-triazol-1-yl)methyl)benzyl)-1H-1,2,3-triazol-4-yl)methoxy)-2,2-dimethyl-3-(4-methyl-3-(((R)-4-methyl-1,1-dioxido-3,4-dihydro-2H-benzo[b][1,4,5]oxathiazepin-2-yl)methyl)phenyl)propanoic acid]	0.1 to 1
Cc1ccc(C(OCc2cn(Cc3cccc(Cn4cc(CCC(=O)O)nn4)c3)nn2)C(C)(C)C(=O)O)cc1CN1C[C@@H](C)Oc2ccccc2S1(=O)=O (stereo partly drawn) [Example 45, 3-((1-(3-((4-(2-Carboxyethyl)-1H-1,2,3-triazol-1-yl)methyl)benzyl)-1H-1,2,3-triazol-4-yl)methoxy)-2,2-dimethyl-3-(4-methyl-3-(((R)-4-methyl-1,1-dioxido-3,4-dihydro-2H-benzo[b][1,4,5]oxathiazepin-2-yl)methyl)phenyl)propanoic acid]	0.1 to 1
CC[C@@H]1CN(Cc2cc(C(OCc3cn(Cc4cccc(Cn5cc(COC(c6ccc(C)c(CN7C[C@@H](CC)Oc8ccccc8S7(=O)=O)c6)C(C)(C)C(=O)O)nn5)c4)nn3)C(C)(C)C(=O)O)ccc2C)S(=O)(=O)c2ccccc2O1 (stereo partly drawn) [Example 47, (R)-3,3′-(((1,1′-(1,3-phenylenebis(methylene))bis(1H-1,2,3-triazole-4,1-diyl))bis(methylene))bis(oxy))bis(3-(3-(((R)-4-ethyl-1,1-dioxido-3,4-dihydro-2H-benzo[b][1,4,5]oxathiazepin-2-yl)methyl)-4-methylphenyl)-2,2-dimethylpropanoic acid)]	0.01 to 0.1
Cc1ccc(C(OCc2cn(Cc3ccc(Cn4cc(COC(c5ccc(C)c(CN6C[C@@H](C)Oc7ccccc7S6(=O)=O)c5)C(C)(C)C(=O)O)nn4)cc3)nn2)C(C)(C)C(=O)O)cc1CN1C[C@@H](C)Oc2ccccc2S1(=O)=O (stereo partly drawn) [Example 48, (R)-3,3′-(((1,1′-(1,4-phenylenebis(methylene))bis(1H-1,2,3-triazole-4,1-diyl))bis(methylene))bis(oxy))bis(2,2-dimethyl-3-(4-methyl-3-(((R)-4-methyl-1,1-dioxido-3,4-dihydro-2H-benzo[b][1,4,5]oxathiazepin-2-yl)methyl)phenyl)propanoic acid)]	0.01 to 0.1
CCCN1CCC(Cn2cc(COC(c3ccc(C)c(CN4C[C@@H](C)Oc5ccccc5S4(=O)=O)c3)C(C)(C)C(=O)O)nn2)CC1 (stereo partly drawn) [Example 52, 2,2-Dimethyl-3-(4-methyl-3-(((R)-4-methyl-1,1-dioxido-3,4-dihydro-2H-benzo[b][1,4,5]oxathiazepin-2-yl)methyl)phenyl)-3-((1-((I-propylpiperidin-4-yl)methyl)-1H-1,2,3-triazol-4-yl)methoxy)propanoic acid]	0.1 to 1
